# Results reported in ChEMBL document CHEMBL3217483, “Developing novel non-hydroxamate histone deacetylase inhibitors: the chelidamic warhead” (2012).
# Activity calls are given as the source filed them. The rule behind the calls is not given here.
# Legend:
# [1] = molecular target: T1, Histone deacetylase (Homo sapiens) (UniProt Q13547+O15379+Q9UBN7+Q92769+Q9UQL6+Q8WUI4+Q9BY41+Q96DB2+P56524+Q9UKV0+Q969S8); experiment: Inhibition of HDAC in human U937 cells assessed as slight increase in alpha tubulin acetylation at 50 uM after 24 hrs by western blot analysis; format: cell-based; details: U-937
# [2] = molecular target: T1, Histone deacetylase (Homo sapiens); experiment: Inhibition of HDAC in human U937 cells assessed as slight increase in histone H3 acetylation at 50 uM after 24 hrs by western blot analysis; format: cell-based; details: U-937
# [3] = tested on: U-937; experiment: Cell cycle arrest in human U937 cells assessed as block in S phase at 50 uM after 30 hrs by propidium iodide staining based flow cytometry; format: functional
# [4] = molecular target: T1, Histone deacetylase (Homo sapiens); experiment: Inhibition of HDAC in human U937 cells assessed as increase in alpha tubulin acetylation at 50 uM after 24 hrs by western blot analysis; format: cell-based; details: U-937
# [5] = tested on: U-937; experiment: Induction of apoptosis in human U937 cells after 30 hrs by caspase 3-7 activation method based FACS analysis; format: functional, cell-based
# [6] = tested on: U-937; experiment: Induction of apoptosis in human U937 cells at 50 uM after 30 hrs by caspase 3-7 activation method based FACS analysis; format: functional
# [7] = molecular target: T1, Histone deacetylase (Homo sapiens); experiment: Inhibition of HDAC in human U937 cells assessed as increase in histone H3 acetylation at 50 uM after 24 hrs by western blot analysis; format: cell-based; details: U-937
# [8] = tested on: U-937; experiment: Induction of granulocytic differentiation in human U937 cells assessed as CD11c positive/propidium iodide negative cells after 30 hrs by FACS analysis; format: functional, cell-based
# [9] = tested on: U-937; experiment: Induction of granulocytic differentiation in human U937 cells assessed as CD11c positive/propidium iodide negative cells at 50 uM after 30 hrs by FACS analysis; format: functional
Compound,inhibition [1],inhibition [2],Activity [3],inhibition [4],Activity [5],Activity [6],inhibition [7],Activity [8],Activity [9]
COC(=O)c1cc(OCCCCCCCCOc2ccc(NC(=O)Cc3ccccc3)cc2)cc(C(=O)OC)n1,inactive,inactive,Active,,,,,,
COC(=O)c1cc(OCCCCOc2ccc(NC(=O)Cc3ccccc3)cc2)cc(C(=O)OC)n1,inactive,inactive,Active,,,,,,
COC(=O)c1cc(OCCCCCOc2ccc(NC(=O)Cc3ccccc3)cc2)cc(C(=O)OC)n1,inactive,inactive,Active,,,,,,
O=C(O)c1cc(OCCCCCSc2nc(-c3ccccc3)cc(=O)[nH]2)cc(C(=O)O)n1,inactive,inactive,inactive,,,,,,
O=C(O)c1cc(OCCCSc2nc(-c3ccccc3)cc(=O)[nH]2)cc(C(=O)O)n1,inactive,inactive,inactive,,,,,,
COC(=O)c1cc(OCCSc2nc(-c3ccccc3)cc(=O)[nH]2)cc(C(=O)OC)n1,,,<=50%,Active,Dose-dependent effect,<=50%,Active,,
COC(=O)c1cc(OCCCCCSc2nc(-c3ccccc3)cc(=O)[nH]2)cc(C(=O)OC)n1,,,<=50%,Active,Dose-dependent effect,<=50%,Active,,
COC(=O)c1cc(OCCCCC(=O)Nc2ccccc2)cc(C(=O)OC)n1,inactive,inactive,Active,,,,,,
COC(=O)c1cc(OCCCOc2ccc(NC(=O)Cc3ccccc3)cc2)cc(C(=O)OC)n1,inactive,inactive,Active,,,,,,
COC(=O)c1cc(Oc2ccc(NC(=O)Cc3ccccc3)cc2)cc(C(=O)OC)n1,inactive,inactive,Active,,,,,Dose-dependent effect,<=40%
COC(=O)c1cc(OCCCSc2nc(-c3ccccc3)cc(=O)[nH]2)cc(C(=O)OC)n1,inactive,inactive,,,,,,,
COC(=O)c1cc(OCCCCCCOc2ccc(NC(=O)Cc3ccccc3)cc2)cc(C(=O)OC)n1,inactive,inactive,Active,,,,,,
COC(=O)c1cc(OCc2ccc(NC(=O)Cc3ccccc3)cc2)cc(C(=O)OC)n1,inactive,inactive,Active,,,,,,
O=C(O)c1cc(OCCCCSc2nc(-c3ccccc3)cc(=O)[nH]2)cc(C(=O)O)n1,inactive,inactive,inactive,,,,,,
O=C(O)c1cc(OCCSc2nc(-c3ccccc3)cc(=O)[nH]2)cc(C(=O)O)n1,inactive,inactive,inactive,,,,,,
COC(=O)c1cc(OCCCCSc2nc(-c3ccccc3)cc(=O)[nH]2)cc(C(=O)OC)n1,,,<=50%,Active,Dose-dependent effect,<=50%,Active,,
COC(=O)c1cc(OCCOc2ccc(NC(=O)Cc3ccccc3)cc2)cc(C(=O)OC)n1,inactive,inactive,Active,,,,,,
COC(=O)c1cc(OCCCCCCCOc2ccc(NC(=O)Cc3ccccc3)cc2)cc(C(=O)OC)n1,inactive,inactive,Active,,,,,,
